Data reported in patent publication US20250230193A1, “CYCLIC COMPOUND HAVING SELECTIVE KRAS INHIBITORY EFFECT ON HRAS AND NRAS” (CHUGAI SEIYAKU KABUSHIKI KAISHA, priority 2022, published 2025).

Experiments:
[1] = target: GDP-bound NRAS wild-type protein (Homo sapiens, UniProt P01111); assay: Binding to NRAS by surface plasmon resonance (SPR), Single Cycle Kinetics; details: KD ratio, GDP-bound NRAS wild-type vs GDP-bound KRAS wild-type, SPR
[2] = target: GDP-bound HRAS wild-type protein (Homo sapiens, UniProt P01112); assay: Binding to HRAS by surface plasmon resonance (SPR), Single Cycle Kinetics; details: KD ratio, GDP-bound HRAS wild-type vs GDP-bound KRAS wild-type, SPR
GDP-bound HRAS wild-type protein, sequence (P01112 whole entry): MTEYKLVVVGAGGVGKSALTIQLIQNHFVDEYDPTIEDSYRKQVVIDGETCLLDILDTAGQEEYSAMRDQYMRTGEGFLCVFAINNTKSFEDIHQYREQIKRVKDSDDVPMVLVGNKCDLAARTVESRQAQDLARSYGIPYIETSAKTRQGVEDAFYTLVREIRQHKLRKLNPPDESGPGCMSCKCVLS

GDP-bound NRAS wild-type protein, sequence (P01111 whole entry): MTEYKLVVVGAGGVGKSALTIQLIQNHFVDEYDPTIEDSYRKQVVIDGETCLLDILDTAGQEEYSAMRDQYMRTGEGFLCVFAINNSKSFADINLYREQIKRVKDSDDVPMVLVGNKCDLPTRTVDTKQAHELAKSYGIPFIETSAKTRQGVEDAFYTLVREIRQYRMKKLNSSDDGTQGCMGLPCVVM

SMILES	NRAS/KRAS (ratio of KD value with respect to NRAS to KD value with respect to KRAS) [1]	HRAS/KRAS (ratio of KD value with respect to HRAS to KD value with respect to KRAS) [2]
CCO[C@@H]1C[C@H]2C(=O)NC3(CCC3)C(=O)N(C)[C@@H](C3CCCC3)C(=O)N(C)[C@H](C(=O)N(C)C)CC(=O)N(C)[C@@H](Cc3ccc(Cl)c(Cl)c3)C(=O)N[C@@H]([C@@H](C)CC)C(=O)N(C)CC(=O)N(C)[C@H]3CCCCCN(C3=O)[C@@H](Cc3ccc(F)cc3)C(=O)N(C)CC(=O)N[C@@H](CCc3cc(F)c(C(F)(F)F)c(F)c3)C(=O)N2C1 [PP1158]	B (a compound having 3 or more and less than 10 is denoted as B)	B (a compound having 3 or more and less than 10 is denoted as B)
CCCO[C@@H]1C[C@H]2C(=O)NC3(CCC3)C(=O)N(C)[C@@H](C3CCCC3)C(=O)N(C)[C@H](C(=O)N3CCOCC3)CC(=O)N(C)[C@@H](CC(C)C)C(=O)N[C@@H]([C@@H](C)CC)C(=O)N(C)CC(=O)N(C)[C@H]3CCCCN(C3=O)[C@@H](Cc3ccc(C(F)(F)F)cc3)C(=O)N(C)CC(=O)N[C@@H](CCc3cc(F)c(C(F)(F)F)c(F)c3)C(=O)N2C1 [PP1159]	C (A compound having a KD ratio of 0.1 or more and less than 3 is denoted as C)	B (a compound having 3 or more and less than 10 is denoted as B)
CC[C@H](C)[C@@H]1NC(=O)[C@H](CC(C)C)N(C)C(=O)C[C@@H](C(=O)N2CCOCC2)N(C)C(=O)[C@H](C2CCCC2)N(C)C(=O)C2(CCC2)NC(=O)[C@@H]2C[C@@H](OCC(C)C)CN2C(=O)[C@H](CCc2cc(F)c(C(F)(F)F)c(F)c2)NC(=O)CN(C)C(=O)[C@H](Cc2ccc(C(F)(F)F)cc2)N2CCCC[C@@H](C2=O)N(C)C(=O)CN(C)C1=O [PP1160]	B (a compound having 3 or more and less than 10 is denoted as B)	B (a compound having 3 or more and less than 10 is denoted as B)
CCCO[C@@H]1C[C@H]2C(=O)NC3(CCC3)C(=O)N(C)[C@@H](C3CCCC3)C(=O)N(C)[C@H](C(=O)N3CCOCC3)CC(=O)N(C)[C@@H](CC(C)C)C(=O)N[C@@H]([C@@H](C)CC)C(=O)N(C)CC(=O)N(C)[C@H]3CCCCCN(C3=O)[C@@H](Cc3ccc(C(F)(F)F)cc3)C(=O)N(C)CC(=O)N[C@@H](CCc3cc(F)c(C(F)(F)F)c(F)c3)C(=O)N2C1 [PP1161]	B (a compound having 3 or more and less than 10 is denoted as B)	B (a compound having 3 or more and less than 10 is denoted as B)
CCO[C@@H]1C[C@H]2C(=O)NC3(CCC3)C(=O)N(C)[C@@H](C3CCCC3)C(=O)N(C)[C@H](C(=O)N3CCOCC3)CC(=O)N(C)[C@@H](Cc3cccs3)C(=O)N[C@@H]([C@@H](C)CC)C(=O)N(C)CC(=O)N(C)[C@H]3CCCCCN(C3=O)[C@@H](Cc3ccc(C(F)(F)F)cc3)C(=O)N(C)CC(=O)N[C@@H](CCc3cc(F)c(C(F)(F)F)c(F)c3)C(=O)N2C1 [PP1163]	B (a compound having 3 or more and less than 10 is denoted as B)	B (a compound having 3 or more and less than 10 is denoted as B)
CCO[C@@H]1C[C@H]2C(=O)NC3(CCC3)C(=O)N(C)[C@@H](C3CCCC3)C(=O)N(C)[C@H](C(=O)N3CCOCC3)CC(=O)N(C)[C@@H](Cc3ccsc3)C(=O)N[C@@H]([C@@H](C)CC)C(=O)N(C)CC(=O)N(C)[C@H]3CCCCCN(C3=O)[C@@H](Cc3ccc(C(F)(F)F)cc3)C(=O)N(C)CC(=O)N[C@@H](CCc3cc(F)c(C(F)(F)F)c(F)c3)C(=O)N2C1 [PP1164]	B (a compound having 3 or more and less than 10 is denoted as B)	B (a compound having 3 or more and less than 10 is denoted as B)
CCO[C@@H]1C[C@H]2C(=O)NC3(CCC3)C(=O)N(C)[C@@H](C3CCCC3)C(=O)N(C)[C@H](C(=O)N3CCOCC3)CC(=O)N(C)[C@@H](Cc3ccccc3C#N)C(=O)N[C@@H]([C@@H](C)CC)C(=O)N(C)CC(=O)N(C)[C@H]3CCCCCN(C3=O)[C@@H](Cc3ccc(C(F)(F)F)cc3)C(=O)N(C)CC(=O)N[C@@H](CCc3cc(F)c(C(F)(F)F)c(F)c3)C(=O)N2C1 [PP1165]	A (a compound having 10 or more and less than 20 is denoted as A)	B (a compound having 3 or more and less than 10 is denoted as B)
CCO[C@@H]1C[C@H]2C(=O)NC3(CCC3)C(=O)N(C)[C@@H](C3CCCC3)C(=O)N(C)[C@H](C(=O)N3CCOCC3)CC(=O)N(C)[C@@H](Cc3ccc(C#N)cc3)C(=O)N[C@@H]([C@@H](C)CC)C(=O)N(C)CC(=O)N(C)[C@H]3CCCCCN(C3=O)[C@@H](Cc3ccc(C(F)(F)F)cc3)C(=O)N(C)CC(=O)N[C@@H](CCc3cc(F)c(C(F)(F)F)c(F)c3)C(=O)N2C1 [PP1167]	B (a compound having 3 or more and less than 10 is denoted as B)	B (a compound having 3 or more and less than 10 is denoted as B)
CCO[C@@H]1C[C@H]2C(=O)NC3(CCC3)C(=O)N(C)[C@@H](C3CCCC3)C(=O)N(C)[C@H](C(=O)N3CCOCC3)CC(=O)N(C)[C@@H](Cc3ccc(Cl)c(Cl)c3)C(=O)N[C@@H]([C@@H](C)CC)C(=O)N(C)CC(=O)N(C)[C@H]3CCCCCN(C3=O)[C@@H](Cc3ccc(C(F)(F)F)cc3)C(=O)N(C)CC(=O)N[C@@H](CCc3cc(F)c(C(F)(F)F)c(F)c3)C(=O)N2C1 [PP1168]	A (a compound having 10 or more and less than 20 is denoted as A)	A (a compound having 10 or more and less than 20 is denoted as A)
CCO[C@@H]1C[C@H]2C(=O)NC3(CCC3)C(=O)N(C)[C@@H](C3CCCC3)C(=O)N(C)[C@H](C(=O)N(C)C)CC(=O)N(C)[C@@H](Cc3cccs3)C(=O)N[C@@H]([C@@H](C)CC)C(=O)N(C)CC(=O)N(C)[C@H]3CCCCCN(C3=O)[C@@H](Cc3ccc(C(F)(F)F)cc3)C(=O)N(C)CC(=O)N[C@@H](CCc3cc(F)c(C(F)(F)F)c(F)c3)C(=O)N2C1 [PP1169]	B (a compound having 3 or more and less than 10 is denoted as B)	B (a compound having 3 or more and less than 10 is denoted as B)
CCO[C@@H]1C[C@H]2C(=O)NC3(CCC3)C(=O)N(C)[C@@H](C3CCCC3)C(=O)N(C)[C@H](C(=O)N(C)C)CC(=O)N(C)[C@@H](Cc3ccccc3C#N)C(=O)N[C@@H]([C@@H](C)CC)C(=O)N(C)CC(=O)N(C)[C@H]3CCCCCN(C3=O)[C@@H](Cc3ccc(C(F)(F)F)cc3)C(=O)N(C)CC(=O)N[C@@H](CCc3cc(F)c(C(F)(F)F)c(F)c3)C(=O)N2C1 [PP1171]	B (a compound having 3 or more and less than 10 is denoted as B)	B (a compound having 3 or more and less than 10 is denoted as B)
CCO[C@@H]1C[C@H]2C(=O)NC3(CCC3)C(=O)N(C)[C@@H](C3CCCC3)C(=O)N(C)[C@H](C(=O)N(C)C)CC(=O)N(C)[C@@H](Cc3cccc(C#N)c3)C(=O)N[C@@H]([C@@H](C)CC)C(=O)N(C)CC(=O)N(C)[C@H]3CCCCCN(C3=O)[C@@H](Cc3ccc(C(F)(F)F)cc3)C(=O)N(C)CC(=O)N[C@@H](CCc3cc(F)c(C(F)(F)F)c(F)c3)C(=O)N2C1 [PP1172]	B (a compound having 3 or more and less than 10 is denoted as B)	B (a compound having 3 or more and less than 10 is denoted as B)
CCO[C@@H]1C[C@H]2C(=O)NC3(CCC3)C(=O)N(C)[C@@H](C3CCCC3)C(=O)N(C)[C@H](C(=O)N(C)C)CC(=O)N(C)[C@@H](Cc3ccc(C#N)cc3)C(=O)N[C@@H]([C@@H](C)CC)C(=O)N(C)CC(=O)N(C)[C@H]3CCCCCN(C3=O)[C@@H](Cc3ccc(C(F)(F)F)cc3)C(=O)N(C)CC(=O)N[C@@H](CCc3cc(F)c(C(F)(F)F)c(F)c3)C(=O)N2C1 [PP1173]	B (a compound having 3 or more and less than 10 is denoted as B)	B (a compound having 3 or more and less than 10 is denoted as B)
CCO[C@@H]1C[C@H]2C(=O)NC3(CCC3)C(=O)N(C)[C@@H](C3CCCC3)C(=O)N(C)[C@H](C(=O)N(C)C)CC(=O)N(C)[C@@H](Cc3ccc(Cl)c(Cl)c3)C(=O)N[C@@H]([C@@H](C)CC)C(=O)N(C)CC(=O)N(C)[C@H]3CCCCCN(C3=O)[C@@H](Cc3ccc(C(F)(F)F)cc3)C(=O)N(C)CC(=O)N[C@@H](CCc3cc(F)c(C(F)(F)F)c(F)c3)C(=O)N2C1 [PP1174]	B (a compound having 3 or more and less than 10 is denoted as B)	B (a compound having 3 or more and less than 10 is denoted as B)
CCO[C@@H]1C[C@H]2C(=O)NC3(CCC3)C(=O)N(C)[C@@H](C3CCCC3)C(=O)N(C)[C@H](C(=O)N3CCOCC3)CC(=O)N(C)[C@@H](C)C(=O)N[C@@H]([C@@H](C)CC)C(=O)N(C)CC(=O)N(C)[C@H]3CCCCCN(C3=O)[C@@H](Cc3ccc(F)cc3)C(=O)N(C)CC(=O)N[C@@H](CCc3cc(F)c(C(F)(F)F)c(F)c3)C(=O)N2C1 [PP1175]	B (a compound having 3 or more and less than 10 is denoted as B)	B (a compound having 3 or more and less than 10 is denoted as B)
CCO[C@@H]1C[C@H]2C(=O)NC3(CCC3)C(=O)N(C)[C@@H](C3CCCC3)C(=O)N(C)[C@H](C(=O)N3CCOCC3)CC(=O)N(C)[C@@H](CC)C(=O)N[C@@H]([C@@H](C)CC)C(=O)N(C)CC(=O)N(C)[C@H]3CCCCCN(C3=O)[C@@H](Cc3ccc(F)cc3)C(=O)N(C)CC(=O)N[C@@H](CCc3cc(F)c(C(F)(F)F)c(F)c3)C(=O)N2C1 [PP1176]	B (a compound having 3 or more and less than 10 is denoted as B)	B (a compound having 3 or more and less than 10 is denoted as B)
